According to patent US8058427B2, “Coumarin compounds and their use for treating cancer” (National Health Research Institutes, priority 2008, dated 2011):
Blank lines part the entries; values can stand above or below the compound they belong to.

What was measured:
Type in all cases: cell-based
[1] = test system: KB-CPT100 (cervical carcinoma); assay: Growth inhibition, methylene blue dye assay, KB-CPT100; details: Homo sapiens, KBCPT100; KB-CPT100, drug-resistant, camptothecin-driven selection, 72 h
Description: (§1) Compound 1 was evaluated against 21 human tumor cell lines derived from nine cancer cell types: nasopharyngeal carcinoma (HONE-1, CPT 30, and HONE-cis6), cervical carcinoma (KB, KB-CPT100, KB7D, KB-1036, KB-S15, and KB-vin10), gastric carcinoma (TSGH), breast carcinoma (MCF-7), colorectal carcinoma (HT29), non-small cell lung carcinoma (H460), lymphoma (BJAB and H9), leukemia (CEM and HL 60), and hepatocellular carcinoma (Hep 3B, Hep G2, Huh 7, and Hcc36). […] Compound 140 was tested against the following 15 cell lines: HONE-1, CPT 30, and HONE-cis6, KB, KB-CPT100, KB7D, KB-1036, KB-S 15, and KB-vin10, TSGH, MCF-7, H460, BJAB, H9, and Hep G2. Compound 32 was tested against the following 8 cell lines: HONE-1, KB, TSGH, MCF-7, H460, BJAB, H9, and Hep G2.
(§2) Cells in logarithmic growth phase were cultured at a density of 5000 cells/ml/well in a 24-well plate. Drug-resistant cells were cultured in a medium free of test compounds for 3 days before use. The cells were exposed to various concentrations of a test compound for 72 h. The methylene blue dye assay was used to evaluate the effect of the test compound on cell growth, as has been described in Finlay et al., Anal. Biochem. 1984, 139, 272-277. The IC50 value resulting from 50% inhibition of cell growth was calculated graphically as a comparison with control growth.

TSGH (gastric carcinoma) = assay: Growth inhibition, methylene blue dye assay, TSGH; details: Homo sapiens, 72 h
Description: as §1, §2

[2] = test system: KB-1036 (cervical carcinoma); assay: Growth inhibition, methylene blue dye assay, KB-1036; details: Homo sapiens; KB-1036, D-501036 driven selection, 72 h
Description: as §1, §2

KB (cervical carcinoma) = assay: Growth inhibition, methylene blue dye assay, KB; details: Homo sapiens, 72 h
Description: as §1, §2

H9 (lymphoma) = assay: Growth inhibition, methylene blue dye assay, H9; details: Homo sapiens, H9, 72 h
Description: as §1, §2

[3] = test system: KB-S15 (cervical carcinoma); assay: Growth inhibition, methylene blue dye assay, KB-S15; details: Homo sapiens; KB-S15, drug-resistant, paclitaxel-driven selection, 72 h
Description: as §1, §2

[4] = test system: HONE-cis6 (nasopharyngeal carcinoma); assay: Growth inhibition, methylene blue dye assay, HONE-cis6; details: Homo sapiens; HONE-cis6, drug-resistant, cisplatin-driven selection, 72 h
Description: as §1, §2

[5] = test system: Hep G2 (hepatocellular carcinoma); assay: Growth inhibition, methylene blue dye assay, Hep G2; details: Homo sapiens, HepG2, Hep G2, 72 h
Description: as §1, §2

human tumor cell lines = assay: Growth inhibition, methylene blue dye assay, panel of tumor cell lines; details: most of the tested cell lines, 72 h
Description: as §1, §2

[6] = test system: CPT30 (nasopharyngeal carcinoma); assay: Growth inhibition, methylene blue dye assay, CPT30; details: Homo sapiens; CPT30, drug-resistant, camptothecin-driven selection, 72 h
Description: as §1, §2

BJAB (lymphoma) = assay: Growth inhibition, methylene blue dye assay, BJAB; details: Homo sapiens, 72 h
Description: as §1, §2

[7] = test system: KB-vin10 (cervical carcinoma); assay: Growth inhibition, methylene blue dye assay, KB-vin10; details: Homo sapiens; KB-vin10, vincristine-driven selection, 72 h
Description: as §1, §2

[8] = test system: HONE-1 (nasopharyngeal carcinoma); assay: Growth inhibition, methylene blue dye assay, HONE-1; details: Homo sapiens, HONE1, 72 h
Description: as §1, §2

[9] = test system: KB7D (cervical carcinoma); assay: Growth inhibition, methylene blue dye assay, KB7D; details: Homo sapiens, VP-16-driven selection, 72 h
Description: as §1, §2

MCF-7 (breast carcinoma) = assay: Growth inhibition, methylene blue dye assay, MCF7; details: Homo sapiens, MCF7, 72 h
Description: as §1, §2

[10] = test system: H460 (non-small cell lung carcinoma); assay: Growth inhibition, methylene blue dye assay, H460; details: Homo sapiens, NCI-H460, H460, 72 h
Description: as §1, §2

[11] = test system: Human cervical carcinoma KB cells; assay: Growth inhibition assay, KB cells (MTS); details: 72 h, read-out: IC50 (concentration causing 50% cell growth inhibition)
Description: Anticancer activities of the compounds of this invention were evaluated using a growth inhibition assay described in Kuo et al., Cancer Res. 2004, 64(13), 4621-4628.
Human cervical carcinoma KB cells were maintained in plastic dishes in DMEM medium supplemented with 10% fetal bovine serum. For in vitro treatment, tumor cells were seeded in […] of culture medium/well in 96-well plates to a final cell density of 6×10^3 cell/mL and incubated in a CO2 incubator at 37° C. for 24 h. The cells were treated with at least five different concentrations of a test compound, and incubated in a CO2 incubator at 37° C. for 72 h. The number of viable cells was estimated using MTS assay and absorbance was measured at 490 nm. For each test compound, dose-response curves were measured with at least five different drug concentrations, and the concentration causing 50% cell growth inhibition (IC50) compared with the control was calculated.

CEM (leukemia) = assay: Growth inhibition, methylene blue dye assay, CEM; details: Homo sapiens, 72 h
Description: as §1, §2

[12] = test system: Huh 7 (hepatocellular carcinoma); assay: Growth inhibition, methylene blue dye assay, Huh 7; details: Homo sapiens, Huh 7, 72 h
Description: as §1, §2

[13] = test system: Hep 3B (hepatocellular carcinoma); assay: Growth inhibition, methylene blue dye assay, Hep 3B; details: Homo sapiens, Hep3B, 72 h
Description: as §1, §2

[14] = test system: HT29 (colorectal carcinoma); assay: Growth inhibition, methylene blue dye assay, HT29; details: Homo sapiens, HT-29, HT29, 72 h
Description: as §1, §2

HL 60 (leukemia) = assay: Growth inhibition, methylene blue dye assay, HL60; details: Homo sapiens, HL60, 72 h
Description: as §1, §2

[15] = test system: Hcc36 (hepatocellular carcinoma); assay: Growth inhibition, methylene blue dye assay, Hcc36; details: Homo sapiens, Hcc36, 72 h
Description: as §1, §2

SMILES: Cc1cc(=O)oc2c1ccc1oc(C(=O)c3ccccc3)c(-c3ccc(Br)cc3)c12 [Compound 140]
IC50 [1]: 9 nM
IC50 (TSGH (gastric carcinoma)): 41 nM
IC50 [2]: 13 nM
IC50 (KB (cervical carcinoma)): 7.7 nM
IC50 (H9 (lymphoma)): 20 nM
IC50 [3]: 10 nM
IC50 [4]: 10 nM
IC50 [5]: 2.6 µM
IC50 (human tumor cell lines): < 10 nM
IC50 [6]: 10.5 nM
IC50 (BJAB (lymphoma)): 60 nM
IC50 [7]: 10 nM
IC50 [8]: 3 nM
IC50 [9]: 8 nM
IC50 (MCF-7 (breast carcinoma)): 13 nM
IC50 [10]: 3 nM

SMILES: COc1ccc(C(=O)c2oc3ccc4c(C)cc(=O)oc4c3c2-c2ccccc2)cc1 [Compound 32]
IC50 (TSGH (gastric carcinoma)): 150 nM
IC50 (KB (cervical carcinoma)): 41 nM
IC50 (H9 (lymphoma)): 124 nM
IC50 [5]: 5.5 µM
IC50 (human tumor cell lines): < 150 nM
IC50 (BJAB (lymphoma)): 45 nM
IC50 [8]: 55 nM
IC50 (MCF-7 (breast carcinoma)): 150 nM
IC50 [10]: 40 nM

SMILES: COc1ccc(-c2c(C(=O)c3ccccc3)oc3ccc4c(C)cc(=O)oc4c23)cc1 [Compound 248]
IC50 [11]: 101 to 999 nM

SMILES: Cc1cc(=O)oc2c1ccc1oc(C(=O)c3cccc(OCCN4CCN(C)CC4)c3)c(-c3ccccc3)c12 [Compound 89]
IC50 [11]: 101 to 999 nM

SMILES: Cc1cc(=O)oc2c1ccc1oc(C(=O)c3cc(F)ccc3F)c(-c3ccccc3)c12 [Compound 61]
IC50 [11]: 101 to 999 nM

SMILES: CCOC(=O)c1cc(C(=O)c2oc3ccc4c(C)cc(=O)oc4c3c2-c2ccccc2)on1 [Compound 110]
IC50 [11]: 1000 to 10000 nM

SMILES: Cc1cc(=O)oc2c1ccc1oc(C(=O)c3cccc(OCCCCN4CCN(C)CC4)c3)c(-c3ccccc3)c12 [Compound 91]
IC50 [11]: 1000 to 10000 nM

SMILES: Cc1cc(=O)oc2c1ccc1oc(C(=O)c3cccs3)c(-c3ccc(Br)cc3)c12 [Compound 254]
IC50 [11]: 101 to 999 nM

SMILES: Cc1cc(=O)oc2c1ccc1oc(C(=O)c3ccc(Br)cc3)c(-c3ccccc3)c12 [Compound 50]
IC50 [11]: 101 to 999 nM

SMILES: Cc1cc(=O)oc2c1ccc1oc(C(=O)c3cc(F)ccc3F)c(-c3ccc(F)cc3)c12 [Compound 221]
IC50 [11]: 101 to 999 nM

Further lines, results first:

IC50 [11]: 1000 to 10000 nM
SMILES: Cc1ccc(C(=O)c2oc3ccc4c(C)cc(=O)oc4c3c2-c2ccc(Br)cc2)cc1 [Compound 212]

IC50 [11]: 101 to 999 nM
SMILES: Cc1cc(=O)oc2c1ccc1oc(C(=O)c3ccc(F)cc3)c(-c3ccccc3)c12 [Compound 46]

IC50 [11]: 101 to 999 nM
SMILES: Cc1cc(=O)oc2c1ccc1oc(C(=O)c3ccc(F)c(F)c3)c(-c3ccccc3)c12 [Compound 60]

IC50 [1]: 6.25 nM
IC50 (TSGH (gastric carcinoma)): 17 nM
IC50 (CEM (leukemia)): 1000 nM
IC50 [2]: 4 nM
IC50 (KB (cervical carcinoma)): 1.3 to 1.8 nM
IC50 [12]: 26.7 µM
IC50 (H9 (lymphoma)): 3.5 nM
IC50 [3]: 0.5 nM
IC50 [13]: 35 µM
IC50 [4]: 4.5 nM
IC50 [5]: 3.5 µM
IC50 (human tumor cell lines): < 10 nM
IC50 [6]: 8.5 nM
IC50 (BJAB (lymphoma)): 110 nM
IC50 [14]: 7 nM
IC50 [7]: 2.5 nM
IC50 [8]: 2 nM
IC50 [9]: 0.8 nM
IC50 (HL 60 (leukemia)): 1000 nM
IC50 (MCF-7 (breast carcinoma)): 4 nM
IC50 [15]: 10.8 µM
IC50 [10]: 0.5 nM
SMILES: Cc1cc(=O)oc2c1ccc1oc(C(=O)c3ccccc3)c(-c3ccccc3)c12 [Compound 1, 8-benzoyl-4-methyl-9-phenyl-furo[2,3-h]chromen-2-one]

IC50 [11]: 101 to 999 nM
SMILES: Cc1cc(=O)oc2c1ccc1oc(C(=O)c3ccccc3)c(-c3ccc(Cl)c(Cl)c3)c12 [Compound 224]

IC50 [11]: 101 to 999 nM
SMILES: O=C(c1ccccc1)c1oc2ccc3ccc(=O)oc3c2c1-c1ccccc1 [Compound 2]

IC50 [11]: 1000 to 10000 nM
SMILES: Cc1cc(=O)oc2c1ccc1oc(/C(=N/NC(N)=O)c3ccccc3)c(-c3ccccc3)c12 [Compound 174]

IC50 [11]: 101 to 999 nM
SMILES: Cc1cc(=O)oc2c1ccc1sc(C(=O)c3ccccc3)c(-c3ccccc3)c12 [Compound 26]
